Measurements reported in publication PMC8850458, “The AUTOTAC chemical biology platform for targeted protein degradation via the autophagy-lysosome system” (Nature Communications, 2022).
“And” between values parts separate entries of the source, which are not always exact repeats. Equal entries are not always repeated. Where two headings read alike, the source gives them in different places.

How the values were obtained:
tauP301L = tauP301L (Homo sapiens, UniProt P10636, P618L); assay: WB degradation of tauP301L in SH-SY5Y-tauP301L cells; type: cell-based; details: densitometry, dosage degradation, SH-SY5Y-Tau-TiFC; for Tau normalized to GAPDH and control, AVG %: average of N=3
Sequence of tauP301L (P10636 1-441 isoform P10636-8 P301L): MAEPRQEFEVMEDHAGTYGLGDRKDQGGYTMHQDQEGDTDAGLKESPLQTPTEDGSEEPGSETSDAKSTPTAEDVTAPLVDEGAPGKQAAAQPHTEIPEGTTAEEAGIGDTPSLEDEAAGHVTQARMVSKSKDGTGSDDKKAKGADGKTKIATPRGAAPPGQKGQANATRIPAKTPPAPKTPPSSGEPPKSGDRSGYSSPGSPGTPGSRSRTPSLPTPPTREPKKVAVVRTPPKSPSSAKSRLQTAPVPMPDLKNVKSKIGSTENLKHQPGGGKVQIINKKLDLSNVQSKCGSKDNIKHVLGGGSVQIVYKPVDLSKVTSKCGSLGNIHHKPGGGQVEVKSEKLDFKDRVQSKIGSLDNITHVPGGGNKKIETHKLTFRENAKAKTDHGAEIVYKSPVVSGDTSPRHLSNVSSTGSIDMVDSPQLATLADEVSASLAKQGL
Protocol: (§1) Adherent cells were washed with phosphate-buffered saline (PBS) and cell pellets were lysed in SDS-based sample buffer (277.8 mM Tris-HCI, pH 6.8, 4.4% LDS, 44.4% (v/v) glycerol) containing beta-mercaptoethanol. Alternatively, cell pellets or protein supernatants were lysed in 5X Laemmli sample buffer. Whole-cell lysates were separated using SDS-PAGE, and transferred onto polyvinyllidene difluoride membranes at 100 V for 2 h at 4 °C. The membrane was incubated with a blocking solution consisting 4% skim milk in PBS solution for 30 min at room temperature and incubated with primary antibodies overnight, followed by incubation with host-specific HRP-conjugated secondary antibodies (1:10000 dilution). For signal detection, the membrane was developed with a mixture of ECL solution (Thermo Fisher Scientific) using X-ray films. Densitometry of developed bands was measured and analyzed with ImageJ (NIH, Bethesda).

mutant HttQ103 and LC3 = assay: ICC of HDQ103-GFP and LC3 co-localization in HeLa cells; type: cell-based; details: Fig. S7k, test substances given +HCQ; for HttQ103-GFP / LC3 colocalization, AVG of cells per 50 cells: control 1; for HttQ103-GFP / LC3 colocalization, percentage AVG: control 2
Protocol: Cells were cultured on coverslips coated with poly-L-lysine (Sigma) to observe cellular localization of proteins. Using 4% paraformaldehyde in PBS (pH 7.4), the cells were fixed for 15 min at room temperature and washed three times for 5 min with PBS. After fixing, the cells were permeabilized with 0.5% Triton X-100 in PBS solution for 15 min and washed three times with PBS for 5 min. The cells were blocked containing 2% BSA in PBS solution for 1 h at room temperature. Subsequently, the cells were incubated with primary antibody diluted in 2% BSA/PBS solution overnight at 4 °C, followed by washing the cells three times for 10 min with PBS and incubated with Alexa Fluor-conjugated secondary antibody diluted in 2% BSA/PBS for 30 min at room temperature. Using a DAPI-containing mounting medium (Vector Laboratories), the coverslips were mounted on glass slides. Confocal images were taken by laser scanning confocal microscope 510 Meta (Zeiss) and analyzed by Zeiss LSM Image Browser (ver. 4.2.0.121). […] Quantification results are shown as mean ± S.D. or S.E.M. of three independent experiments […]
Supplementary Fig. 7. AUTOTACs selectively degrade pathological mutant huntingtin. […]
(j) ICC of HeLa cells […]
expressing HDQ103-GFP with the indicated compounds (1 μM, 24 h) treated with HCQ (10 μM, 24 h). Scale bar, 10 μm. (k) Quantification of j (n=3 biologically independent experiments each counting 50 cells). P-values (from a two-sided unpaired t-test): *P < 0.0432. Data are presented as mean values ± SD where relevant. Source data are provided with this paper. […]

[1] = system: tauP301L inclusion bodies; assay: ICC of TauP301L-GFP autophagic targeting in HeLa cells; type: cell-based; details: Fig. 5k, HCQ alone
Protocol: Fig. 5 Selective degradation of pathological aggregation-prone tau species by aggregate-binding AUTOTAC. a–c WB in SH-SY5Y-tauP301L cells treated with PBA-1105, PBA, or YTK-1105 at the indicated concentrations. d Densitometry of (a, b, and c) (n = 3 biologically independent experiments). e–g Same as (a–c) but with Anle138b-F105, Anle138b, or YTK-105. (h) Densitometry of (e, f, and g) (n = 3 biologically independent experiments). i WB in SH-SY5Y-tauP301L cells treated with PBA-1105 (0.1 μM) at the indicated time points. j ICC of HeLa cells expressing recombinant TauP301L-GFP and treated with the indicated compounds (1 μM, 24 h) and HCQ (10 μM, 24 h). Scale bar, 10 μm. k Quantification of (j) (n = 3 biologically independent experiments each counting 50 cells). l In vivo oligomerization assay in SH-SY5Y-tauP301L cells treated with okadaic acid (15 nM, 24 h) and the indicated compounds (0.1 μM, 24 h). m Triton X-100-fractionation assay in SH-SY5Y-tauP301L cells treated with a combination of HCQ (10 μM, 24 h), okadaic acid (15 nM, 24 h) or PBA-1105 (0.1 μM, 24 h). Data are presented as mean values ± SD where relevant. P-values (from a two-sided unpaired t test): **P < 0.00821. Source data are provided with this paper.
(§2) Cells were cultured on coverslips coated with poly-L-lysine (Sigma) to observe cellular localization of proteins. Using 4% paraformaldehyde in PBS (pH 7.4), the cells were fixed for 15 min at room temperature and washed three times for 5 min with PBS. After fixing, the cells were permeabilized with 0.5% Triton X-100 in PBS solution for 15 min and washed three times with PBS for 5 min. The cells were blocked containing 2% BSA in PBS solution for 1 h at room temperature. Subsequently, the cells were incubated with primary antibody diluted in 2% BSA/PBS solution overnight at 4 °C, followed by washing the cells three times for 10 min with PBS and incubated with Alexa Fluor-conjugated secondary antibody diluted in 2% BSA/PBS for 30 min at room temperature. Using a DAPI-containing mounting medium (Vector Laboratories), the coverslips were mounted on glass slides. Confocal images were taken by laser scanning confocal microscope 510 Meta (Zeiss) and analyzed by Zeiss LSM Image Browser (ver. 4.2.0.121). […] Quantification results are shown as mean ± S.D. or S.E.M. of three independent experiments

[2] = system: p62-positive and WIPI2-positive punctate structures; assay: ICC of WIPI2-p62 co-localization in HeLa cells; type: cell-based; details: HeLa expressing WIPI2-GFP, 2.5 μM, 6 h
Protocol: as §2
Supplementary Fig. 2. Characterization of p62-ZZ ligands (a, c, e) 3-D modeling of p62 […]
μM, 6 h). (m) Quantification of l for co-localization (n=3, 50 cells). Scale bar, 10 µm. (n) […]

ACHN cells [3] = assay: WST-based cell viability assay in ACHN cells; details: ACHN, duplicates
[4] = WST-based cell viability assay in ACHN cells; details: human, ACHN cells; for viability at 0.01 µM / viability at 0.1 µM / viability at 1 µM / viability at 10 µM / viability at 50 µM / viability at 100 µM: ACHN
[5] = system: p62 and LC3 punctate structures; assay: ICC of p62 and LC3 puncta formation and co-localization in HeLa cells; type: cell-based; details: 2.5 μM, 24 h
Protocol: as §2

[6] = system: autophagic turnover of p62 and LC3; assay: Autophagic flux assay in HeLa cells with or without HCQ; type: cell-based; details: 2.5 μM, 24 h, with or without HCQ 10 µM 24 h
Protocol: Fig. 1 Nt-Arg-mimicking p62-ZZ ligands activate p62-dependent selective macroautophagy. a A model illustrating the mode of action of autophagy-targeting ligands. b Chemical structures of autophagy-targeting ligands. c In vitro pulldown assay in HEK293T cells of the 12-mer V-BiP peptide or autophagy-targeting ligands. d In vitro p62 oligomerization assay in HEK293T cells incubated with the p62-ZZ ligands in (b). e ICC of HeLa cells treated with p62-ZZ ligands in (b) (2.5 μM, 24 h). Scale bar, 10 μm. f, g Quantification of (e) for puncta formation and co-localization, respectively (n = 3 biologically independent experiments each counting 50 cells). h A schematic/formulae for autophagy flux index. i Autophagic flux assay in HeLa cells treated with YOK-1304 or YTK-105 (2.5 μM, 24 h) in the presence or absence of HCQ (10 µM, 24 h). Data are presented as mean values ± SD where relevant. P-values (from a two-sided unpaired t test): ***P < 0.000956 (for p62 punctate formation), ***P < 0.000539 (for LC3 punctate formation), ***P < 0.000925 (for p62-LC3 co-localization). Source data are provided with this paper. TEXT PRINTED IN THE PICTURE: (i) YOK 1304: Normalized p62 A.F. index: 2.8; Normalized LC3 II/I A.F. index: 4.2 | (i) YTK 105: Normalized p62 A.F. index: 4.6; Normalized LC3 II/I A.F. index: 11.2
as §1

ACHN cells [7] = assay: Wound healing assay in ACHN cells; type: cell-based; design: wound area / wound area, Average: unit not given here; details: ACHN, 5 μM; for wound area: N=1, N=2
Protocol: To analyze cell migration in two dimensions, U-87 MG or ACHN cells were plated to a monolayer. Cells were scratched with a sterile 10 μl pipette tip and the debris was removed using medium. Cells were treated with compounds and incubated for different time to monitor cell behavior. Photographs were obtained using a microscope at different time point.

[8] = duplicates, read-out: WST assay viability relative to con = 100
[9] = read-out: WST assay viability, AVG %

SMILES: Brc1cccc(-c2cc(-c3ccc4c(c3)OCO4)[nH]n2)c1 [Anle138b, reference compound]
- Tau normalized to GAPDH and control, AVG % (tauP301L; 1 nM): 90.8031%
- remaining activity at 0.001 µM (tauP301L; 1 nM, read-out: (Tau normalized to GAPDH) normalized to control, percentage (individual replicates N=1, N=2, N=3)): 89.3%
- Tau normalized to GAPDH and control, AVG % (tauP301L; 10 nM): 101.352%
- Tau normalized to GAPDH and control, AVG % (tauP301L; 100 nM): 84.5794%
- Tau normalized to GAPDH and control, AVG % (tauP301L; 1 uM): 69.922%
- Tau normalized to GAPDH and control, AVG % (tauP301L; 10uM): 83.6402%
- HttQ103-GFP / LC3 colocalization, AVG of cells per 50 cells (mutant HttQ103 and LC3): 21
- HttQ103-GFP / LC3 colocalization, percentage AVG (mutant HttQ103 and LC3): 42

SMILES: CCN(CCO)CCCC(C)Nc1ccnc2cc(Cl)ccc12 (stereo not drawn) [HCQ]
- TauP301L-GFP / LC3 colocalization, AVG of cells per 50 cells [1]: 11.3333
- TauP301L-GFP / LC3 colocalization, percentage AVG [1]: 22.6667 percentage
- TauP301L-GFP / LC3 colocalization, cells counted per 50 cells (individual replicates) ([1]; count out of 50 cells): 15 and 7 and 12
- HttQ103-GFP / LC3 colocalization, AVG of cells per 50 cells (mutant HttQ103 and LC3): 14.6667
- HttQ103-GFP / LC3 colocalization, percentage AVG (mutant HttQ103 and LC3): 29.3333
- HttQ103-GFP / LC3 colocalization, cells counted per 50 cells (mutant HttQ103 and LC3; single experiments): 13 and 17 and 14

SMILES: CC(C)NCC(O)COc1ccc(OCc2ccccc2)c(OCCCc2ccccc2)c1 (stereo not drawn) [YOK-1304]
- WIPI2-GFP-p62 colocalization, AVG of cells of 50 [2]: 30.6667
- WIPI2-GFP-p62 colocalization, percentage AVG [2]: 61.3333%
- WIPI2-GFP-p62 colocalization, cells of 50 cells counted ([2]; single experiments): 28 and 23 and 41
- WST assay raw reading (ACHN cells [3]; 0.01uM): 0.964 and 0.955
- WST assay viability relative to con = 100 (ACHN cells [3]; 0.01uM): 95.4624
- WST assay raw reading (ACHN cells [3]; 0.1uM): 1.085 and 1.014
- WST assay raw reading (ACHN cells [3]; 1uM): 1.025 and 0.998
- WST assay viability relative to con = 100 (ACHN cells [3]; 1uM): 100.423
- WST assay raw reading (ACHN cells [3]; 10uM): 1.004 and 1.024
- WST assay viability relative to con = 100 (ACHN cells [3]; 10uM): 103.422
- WST assay raw reading (ACHN cells [3]; 50uM): 1.153 and 1.063
- WST assay viability relative to con = 100 (ACHN cells [3]; 50uM): 107.922
- WST assay raw reading (ACHN cells [3]; 100uM): 0.69 and 0.729
- WST assay viability relative to con = 100 (ACHN cells [3]; 100uM): 69.3905
- viability at 0.01 µM [4, 8]: 96.5%
- viability at 0.01 µM [4, 9]: 96%
- viability at 0.1 µM [4, 8]: 110%
- viability at 0.1 µM [4, 9]: 106%
- viability at 1 µM [4, 8]: 104%
- viability at 1 µM [4, 9]: 102%
- viability at 10 µM [4, 8]: 101%
- viability at 10 µM [4, 9]: 102%
- viability at 50 µM [4, 8]: 118%
- viability at 50 µM [4, 9]: 113%
- viability at 100 µM [4, 8]: 64.9%
- viability at 100 µM [4, 9]: 67.1%
- IC50 ([4]; WST-based viability assay, read-out: cytotoxicity IC50): > 20 µM
- LC3 puncta formation, AVG of cells of 50 [5]: 38.6667
- LC3 puncta formation, percentage AVG [5]: 77.3333%
- p62-LC3 colocalization, AVG of cells of 50 [5]: 37
- p62-LC3 colocalization, percentage AVG [5]: 74%
- p62 puncta formation, AVG of cells of 50 [5]: 40.3333
- p62 puncta formation, percentage AVG [5]: 80.6667%
- LC3 puncta formation, cells of 50 cells counted ([5]; single experiments): 29 and 49 and 38
- p62-LC3 colocalization, cells of 50 cells counted ([5]; single experiments): 36 and 39
- p62 puncta formation, cells of 50 cells counted ([5]; single experiments): 46 and 36 and 39
- Normalized LC3 II/I A.F. index [6]: 4.2
- Normalized p62 A.F. index [6]: 2.8
- wound area, Average (ACHN cells [7]; 0h): 2209762
- wound area, Average % (ACHN cells [7]; 0h): 0%
- wound area (ACHN cells [7]; 0h): 2287288 and 2132236
- wound area, Average (ACHN cells [7]; 4h): 1966032
- wound area, Average % (ACHN cells [7]; 4h): 0%
- wound area (ACHN cells [7]; 4h): 2073039 and 1859025
- wound area, Average (ACHN cells [7]; 12h): 1228896
- wound area, Average % (ACHN cells [7]; 12h): 0%
- wound area (ACHN cells [7]; 12h): 1307559 and 1150234
- wound area, Average (ACHN cells [7]; 24h): 122450
- wound area, Average % (ACHN cells [7]; 24h): 0%
